One data set in a line: pKa measurement. In kind it is physicochemical. The conditions noted are these: weak diprotic acid.
In a further data set the target is LAR (Homo sapiens, UniProt P10586). As to conditions: 22 °C and pH 6.5; originally obtained; cited from earlier work.

The values below come from publication PMC8906844 (Organic & biomolecular chemistry, 2021).

SMILES strings stand for the structures.

The term pKa denotes the negative logarithm of the acid dissociation constant. Low values mean a stronger acid or weaker base, high ones a weaker acid or stronger base.

Sequence of LAR (P10586 30-1907): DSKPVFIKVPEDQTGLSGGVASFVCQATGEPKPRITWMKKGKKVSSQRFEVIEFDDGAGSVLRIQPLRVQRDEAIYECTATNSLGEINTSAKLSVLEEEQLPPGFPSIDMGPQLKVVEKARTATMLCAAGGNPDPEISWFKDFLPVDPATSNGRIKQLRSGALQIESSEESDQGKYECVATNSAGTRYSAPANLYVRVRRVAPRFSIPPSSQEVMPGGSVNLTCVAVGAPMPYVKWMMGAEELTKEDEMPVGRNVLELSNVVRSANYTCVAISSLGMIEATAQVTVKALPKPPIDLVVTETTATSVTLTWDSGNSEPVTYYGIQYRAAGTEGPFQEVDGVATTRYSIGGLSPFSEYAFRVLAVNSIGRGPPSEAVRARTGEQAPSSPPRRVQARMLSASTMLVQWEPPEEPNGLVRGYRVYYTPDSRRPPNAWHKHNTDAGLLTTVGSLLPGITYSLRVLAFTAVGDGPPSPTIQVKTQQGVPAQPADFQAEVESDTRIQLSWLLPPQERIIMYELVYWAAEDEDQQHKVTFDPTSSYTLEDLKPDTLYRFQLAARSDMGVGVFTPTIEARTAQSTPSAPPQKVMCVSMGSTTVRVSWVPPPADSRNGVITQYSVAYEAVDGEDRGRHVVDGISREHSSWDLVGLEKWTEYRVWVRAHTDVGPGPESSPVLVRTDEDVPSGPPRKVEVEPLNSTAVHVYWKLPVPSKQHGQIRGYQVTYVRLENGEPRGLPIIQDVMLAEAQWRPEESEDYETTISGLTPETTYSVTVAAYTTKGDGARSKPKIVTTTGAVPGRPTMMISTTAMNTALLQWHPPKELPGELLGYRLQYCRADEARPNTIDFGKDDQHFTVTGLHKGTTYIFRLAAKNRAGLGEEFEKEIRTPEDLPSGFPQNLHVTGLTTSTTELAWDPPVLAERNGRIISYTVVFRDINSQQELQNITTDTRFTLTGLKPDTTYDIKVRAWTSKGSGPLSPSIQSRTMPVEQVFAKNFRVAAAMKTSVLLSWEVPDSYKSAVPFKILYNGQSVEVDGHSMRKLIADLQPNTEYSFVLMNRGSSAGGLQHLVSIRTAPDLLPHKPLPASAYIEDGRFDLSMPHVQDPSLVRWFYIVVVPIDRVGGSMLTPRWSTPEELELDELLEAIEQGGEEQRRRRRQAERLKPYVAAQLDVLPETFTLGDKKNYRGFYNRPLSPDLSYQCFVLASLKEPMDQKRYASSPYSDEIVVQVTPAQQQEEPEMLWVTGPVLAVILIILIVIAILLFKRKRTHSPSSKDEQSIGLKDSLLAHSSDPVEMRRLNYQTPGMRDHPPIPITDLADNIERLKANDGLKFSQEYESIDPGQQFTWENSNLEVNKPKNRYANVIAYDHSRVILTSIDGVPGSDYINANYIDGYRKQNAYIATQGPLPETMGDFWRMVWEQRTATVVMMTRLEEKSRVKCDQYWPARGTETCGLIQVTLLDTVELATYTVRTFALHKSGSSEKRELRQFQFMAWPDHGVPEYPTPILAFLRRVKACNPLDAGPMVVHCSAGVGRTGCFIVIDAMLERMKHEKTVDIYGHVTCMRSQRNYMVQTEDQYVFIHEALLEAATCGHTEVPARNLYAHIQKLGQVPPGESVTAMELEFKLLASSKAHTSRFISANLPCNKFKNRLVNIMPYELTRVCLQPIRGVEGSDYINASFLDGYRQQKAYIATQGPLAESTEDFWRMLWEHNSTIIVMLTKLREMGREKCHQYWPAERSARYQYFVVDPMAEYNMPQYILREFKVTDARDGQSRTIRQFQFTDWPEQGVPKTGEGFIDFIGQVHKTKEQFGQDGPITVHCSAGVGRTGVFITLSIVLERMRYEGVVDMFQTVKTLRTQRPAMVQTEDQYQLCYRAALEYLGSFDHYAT

In the case of `CC1(C)Cc2c(O)c(C=O)c3c(c2C1)C(=O)OC(O)C3` (stereo not drawn) [illudalic acid], the pKa was determined as 5.42 in the data set “pKa measurement” (pKa (first), first value) and 6.6 in the data set “pKa measurement” (pKa (second), second value). Further, the “t^∞1/2” value on LAR was 0.5 min.
